These results are taken from US12281118B2, “Nitrogen-containing fused heterocyclic SHP2 inhibitor compound, preparation method, and use” (SHANGHAI RINGENE BIOPHARMA CO., LTD., priority 2018, dated 2025).

Structures are written as SMILES. Read-outs that look alike come from different tables or passages of the source.

The target of one test is SHP2 enzyme (Homo sapiens (Human), UniProt Q06124). The test can be described thus: Inhibitory activity against SHP2 enzyme (Caliper conversion rate). Format: biochemical. The settings on record: read-out: SHP2 Enzyme Inhibition IC50 Value. As to the method: (1) Preparing 1×Reaction Buffer according to the BPS Biosciences' Instructions for Use of the SHP2 enzyme. (2) Preparing a compound concentration gradient: Test the test compound at 10 μM under 3× dilution for 10 concentrations, diluting to a 100% dimethyl sulfoxide solution at a 100× final concentration in a 384-well plate, and diluting the compound with Precision 4× for 10 concentrations. Transferring 250 nL of the compound at the 100× final concentration to a target plate OptiPlate-384F using a dispenser Echo 550. […] (3) Preparing the activation peptide solution at a 5× final concentration with the 1×Reaction Buffer, adding 5 μL of the solution to a reaction plate, respectively, and centrifuging at 1000 rpm for 1 min. (4) Preparing an enzyme solution at a 2.5× final concentration with the 1×Reaction Buffer, adding 10 μL of the solution to the reaction plate, respectively, centrifuging at 1000 rpm for 1 min, and incubating at room temperature for 60 min. (5) Preparing a substrate peptide solution at a 2.5× final concentration with the 1×Reaction Buffer, centrifuging at 1000 rpm for 1 min, and incubating at room temperature for 30 min. (6) Adding 30 μL of stop test solution to stop the reaction, centrifuging at 1000 rpm for […], and mixing well by shaking. (7) Reading the conversion rate with a Caliper EZ Reader. (7) Data analysis:
Wherein: Conversion %/_sample is the reading of a conversion rate of a sample; Conversion %_min: mean of negative control wells, which represents the reading of a conversion rate in absence of enzyme activity wells; Conversion %_max: mean of a ratio of positive control wells, which represents the reading of a conversion rate in absence of compound inhibition wells.

Test [1] concerns NCI-H358 tumor cell xenograft. The test can be described thus: Growth inhibition of xenograft in nude mice. Format: in vivo. The settings on record: 10 mg/kg, orally, once daily, for 21 consecutive days. From the text:
(§1) Experimental method: 1) Culturing MV 4-11/KYSE520/NCI-H358 cells in a culture medium containing 10% fetal bovine serum. Harvesting tumor cells at an exponential growth phase, and resuspending in PBS to suitable concentrations for subcutaneous tumor inoculation in nude mice. 2) Subcutaneously inoculating 2-8×10^7 tumor cells at the right back of a mouse, and resuspending the cells in PBS and matrigel (1:1); observing tumor growth regularly, and randomizing mice for administration based on tumor size and mouse body weight when tumors grow to a mean volume of ˜120 mm^3-[…]. 3) Defining the day of tumor cell inoculation as Day 0. Prior to the start of dosing, weighing all animals and measuring the tumor volume with a vernier caliper. 3) Administering orally compound of examples (prepared with water for injection containing 1% Tween80 to a desired concentration for use) at a given dose for three consecutive weeks, and giving an equal amount of solvent animals in a solvent control group. Measuring diameters of the xenograft twice a week throughout the experiment, and weighing the mice were at the same time.
(§2) The calculation formula of tumor volume (TV) is: TV=½×a×b^2, wherein a and b represent length and width, respectively. The relative tumor volume (RTV) is calculated based on the measured results using the formula: RTV=Vt/V0, wherein V0 is the tumor volume measured at the time of dosing in separate cages (i.e., Day 0) and Vt is the tumor volume at each measurement. The anti-tumor activity is evaluated by the following measures: 1) relative tumor proliferation rate T/C (%), which is calculated by the following formula: T/C (%)=(TRTV/CRTV)×100%, wherein TRTV: RTV of ae treatment group; CRTV: RTV of a negative control group; 2) inhibition rate of tumor volume growth GI %, which is calculated by the following formula: GI %=[1−(TVt−TV0)/(CVt−[…])]×100%, wherein TVt is the tumor volume at each measurement in the treatment group; TV0 is the tumor volume obtained at the time of dosing in separate cages in the treatment group; CVt is the tumor volume at each measurement in the control group; CV0 is the tumor volume obtained at the time of dosing in separate cages in the control group (specific data are shown in Table 4).

In another test the test system is MV4-11 leukemia cells. The test can be described thus: Inhibition of proliferation of MV4-11 leukemia cells (CellTiter-Glo, 72 h). Format: cell-based. The settings on record: read-out: IC50 value, MV4-11 cell proliferation. On the procedure:
Specific experimental procedures: 1) At Day 0: Inoculating trypsin-digested cells in 96-well plate and suspending the plate in cell culture medium; measure cell density using an automatic cell counter, diluting the cells with the culture medium to appropriate density, adding 100 μl of cell suspension in the 96-well plate, and incubating a cell-free medium as a control well in a cell incubator with […] at 37° C. overnight; 2) Day 1: Treating test compounds of the cells using a drug for a total of 8 concentrations, and diluting at a 3× concentration, wherein 10 μM is a starting test concentration of the test compounds. […] IC50 values are obtained by a four-parameter regression using software attached to the plate reader (the specific results are shown in Table 2).

Test [2] relates to MV 4-11 tumor cell xenograft. The test can be described thus: Growth inhibition of xenograft in nude mice. In kind it is in vivo. The settings on record: 30 mg/kg, orally, once daily, for 21 consecutive days.
Text: as §1, §2

The test system of test [3] is KYSE520 tumor cell xenograft. The test can be described thus: Growth inhibition of xenograft in nude mice. In kind it is in vivo. The settings on record: 30 mg/kg, orally, once daily, for 21 consecutive days.
Text: as §1, §2

Chain of SHP2 enzyme (Q06124 whole entry): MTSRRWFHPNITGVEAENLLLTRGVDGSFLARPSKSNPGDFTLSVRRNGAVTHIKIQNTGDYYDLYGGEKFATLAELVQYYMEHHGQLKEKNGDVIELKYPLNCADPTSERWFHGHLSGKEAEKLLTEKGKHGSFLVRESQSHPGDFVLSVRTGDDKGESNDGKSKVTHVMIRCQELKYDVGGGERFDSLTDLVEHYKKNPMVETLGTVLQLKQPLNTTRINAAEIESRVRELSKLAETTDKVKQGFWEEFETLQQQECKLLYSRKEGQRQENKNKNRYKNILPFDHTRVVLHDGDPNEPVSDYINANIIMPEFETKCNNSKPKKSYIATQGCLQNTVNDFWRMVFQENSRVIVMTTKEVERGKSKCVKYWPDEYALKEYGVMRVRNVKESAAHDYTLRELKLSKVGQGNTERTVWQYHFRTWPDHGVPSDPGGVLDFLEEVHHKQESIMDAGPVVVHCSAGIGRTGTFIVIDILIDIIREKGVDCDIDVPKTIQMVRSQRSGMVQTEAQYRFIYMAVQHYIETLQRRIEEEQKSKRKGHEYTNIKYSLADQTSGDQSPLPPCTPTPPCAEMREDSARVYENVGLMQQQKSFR

What is called T/C is the result in the treated group divided by that in the control group, in per cent. For the compound `Cc1nc(N2CCC3(CC2)CO[C@@H](C)[C@H]3N)n2ccnc2c1Sc1ccnc(N)c1Cl` [Comparative Compound 3, reference compound], the IC50 worked out at 6.8 nM at SHP2 enzyme and 43 nM in the test on MV4-11 leukemia cells (Homo sapiens, MV4-11, 72 h). This compound also gave a T/C in test [1] of 39%.
As for `CC1(N)CCN(c2nc(N)c(-c3cccc(Cl)c3Cl)c3nccn23)CC1` [Example 27, 5-(4-amino-4-methylpiperidin-1-yl)-8-(2,3-dichlorophenyl) imidazole [1,2-c] pyrimidin-7-amine], the IC50 on SHP2 enzyme amounted to 287 nM; with MV4-11 leukemia cells (72 h) it was 2550 nM.
`CC1(N)CCN(c2cnc(-c3cccc(Cl)c3Cl)c(N)n2)CC1` [SHP099, reference compound]: the T/C in test [2] is 47%; in test [3], 43%. Besides, the IC50 with MV4-11 leukemia cells (72 h) is 1670 nM.
